“And” between values parts separate entries of the source, which are not always exact repeats. Equal values may be shown once. Read-outs that look alike come from different tables or passages of the source.
Columns and labels:
B. bigemina = assay: In vitro growth inhibition, Babesia fluorescent (SYBR Green I) assay; assay type: cell-based; details: 96 h, 4 days culture, mean of triplicate experiments
Experimental: (§1) Babesia parasite was incubated and maintained at 37 °C in a humidifying chamber under 5% CO2, 5% O2, and 90% N2 atmosphere using a microaerophilic stationary-phase culture for conducting the in vitro experiment. Briefly, Germany strain Babesia divergens was cultured in cattle RBCs in Roswell Park Memorial Institute 1640 (RPMI 1640; Sigma-Aldrich, St. Louis, MO, USA) medium replenished with 40% cattle serum, while culture medium 199 (M199; Sigma-Aldrich) was utilized for the Argentina strain B. bigemina and Texas strain B. bovis, and T. equi USDA strain cultured in cattle RBCs supplemented with 40% cattle serum and horse RBCs maintained in hypoxanthine (MP Biomedicals, Santa Ana, CA, USA; final concentration 13.6 μg/mL) and 40% horse serum, respectively. GIT medium complemented with 40% horse serum was used as a growth medium for the USDA strain of B. caballi cultured in horse RBCs. To ensure free-bacterial contamination, amphotericin B (0.15 μg/mL) (Sigma-Aldrich), streptomycin (60 U/mL) and penicillin G (60 U/mL) were added to all medium.
(§2) The Babesia fluorescent assay was carried out on the in vitro culture as previously reported elsewhere to assess the growth of the inhibitory effectiveness of ATR and the combination treatment with DA, CF, and AV. Briefly, in three separate trials, using two-fold dilution, different concentrations of ATR, DA, CF, and AV were prepared in the culture medium and added in 96-well plates in triplicate with 1% parasitemia for T. equi, B. divergens and B. caballi at 5% HCT, while for B. bigemina and B. bovis using 2.5% HCT. The drug combined efficacy was conducted at the same time with the single-treatment assay in accordance with the Chou–Talalay method. […] On day four of culture, an aliquot (100 µL) of lysis buffer mixed with 0.2μL/mL SG1 was added per well; subsequently, it was covered with aluminum foil to prevent exposure to light. After incubation for 6-h at 37 °C, fluorescence readings were acquired on a spectrofluorimeter (Fluoroskan Ascent, Thermo Fisher Scientific, Oceanside, CA, USA) with a 485 nm excitation wavelength and a 518 nm emission wavelength.
(§3) The IC50 values of ATR, DA, CF, and AV were established from the in vitro growth inhibition by nonlinear regression curve fit on a GraphPad Prism (GraphPad Software Inc., San Diego, CA, USA). […] The significant variations (p < 0.05) among group mean values on parasitemia and one-way ANOVA Tukey’s test in GraphPad Prism version 5.0 was used to analyze hematology profiles in mice infected with B. microti.

B. bovis = assay: as above; assay type: cell-based; details: Bos taurus, 96 h, 4 days culture, mean of triplicate experiments
Experimental: as §1, §2, §3

B. caballi = assay: as above; assay type: cell-based; details: Babesia caballi, 96 h, 4 days culture, mean of triplicate experiments
Experimental: as §1, §2, §3

B. divergens = assay: as above; assay type: cell-based; details: 96 h, 4 days culture, mean of triplicate experiments
Experimental: as §1, §2, §3

T. equi = assay: as above; assay type: cell-based; details: 96 h, 4 days culture, mean of triplicate experiments
Experimental: as §1, §2, §3

MDBK cells = assay: Cytotoxicity assay (CCK-8 cell viability); assay type: cell-based, bovine; details: for EC50: Bos taurus, MDBK cells, 24 h, CCK-8
Experimental: (§4) Cultures of human foreskin fibroblast (HFF; HFF-1 ATCC® SCRC-1041™), Madin–Darby bovine kidney (MDBK; ECACC) and mouse embryonic fibroblast (NIH/3T3; ATCC® CRL-1658™) cells were retrieved from −80 °C stock and cultured continuously at 37 °C under atmosphere 5% CO2 in our laboratory. The NIH/3T3 and HFFs cells were maintained in Dulbecco Modified Eagle’s Medium (DMEM; Gibco, Grand Island, NY, USA), while MDBK cell line grown in Minimum Essential Medium Eagle (MEM; Gibco). Each medium was treated with 0.5% penicillin/streptomycin (Gibco), 10% inactivated fetal bovine serum and 2 mM glutamine. Every 72 to 96 h, the medium was replaced, and once 80% confluence was reached, the cell collection was performed by sub-culture protocol. To confirm the absence of mycoplasma contamination, 4,6-diamidino-2-phenylindole dihydrochloride stain (Sigma-Aldrich) was used.
(§5) The cell viability test was conducted in a 96-well plate as described elsewhere. Briefly, an aliquot of (100 µL) cells was implanted at a concentration of 5 × 10^4 cells/mL in DMEM or MEM with fetal bovine serum and incubated overnight under atmosphere 5% CO2 at 37 °C for attachment. Using two-fold dilutions, aliquots (10 µL) of drugs were added in triplicate per well to attain final concentrations of 50 to 1000 µM and further incubated for 24 h. The positive control wells containing cells mixed with the medium in 0.4% DMSO, whereas the negative control wells containing culture medium only. After a 24-h incubation, Cell Counting Kits-8 (CCK-8, 10 µL) was added to each well and then plate incubation was conducted for an additional 3 h and a microplate reader was used to assess the absorbance at 450 nm.

HFFs = assay: Cytotoxicity assay (CCK-8 cell viability); assay type: cell-based, human; details: for EC50: Homo sapiens, HFFs, 24 h, CCK-8
Experimental: as §4, §5

B. microti = details: for peak parasitemia level: peak on day 10; for peak parasitemia level / first day on which parasitemia was not detected by microscopy: B. microti-infected BALB/c mice; for first day on which parasitemia was not detected by microscopy: DA 25, AV 20, ATR 25, ATR 12.5+DA 12.5, ATR 12.5+AV 10 mg/kg BW
[1] = Hematology parameters (HGB, HCT, RBCs) in B. microti-infected treated mice; assay type: in vivo, BALB/c mice; set-up: HGB Mean: unit not given beside the values; RBCs Mean: unit not given here; details: DA 25, AV 20, ATR 25, ATR 12.5+DA 12.5, ATR 12.5+AV 10 mg/kg BW, days 4-8 p.i.
[2] = ATR 25 mg/kg i.p., days 4-8 p.i.

COC(=O)c1c(C)cc(OC(=O)c2c(C)cc(O)c(C=O)c2O)c(C)c1O [ATR, Atranorin]
IC50 (B. bigemina): 64.5 ± 3.9 µM | IC50 (B. bovis): 98.4 ± 4.2 µM | IC50 (B. caballi): 46.6 ± 2.5 µM | IC50 (B. divergens): 45.2 ± 5.9 µM | IC50 (T. equi): 71.3 ± 2.7 µM | EC50 (MDBK cells): 775 ± 16 µM | Selective Index MDBK (MDBK cells; EC50 MDBK / IC50 B. bigemina): 12.0 | Selective Index MDBK (MDBK cells; EC50 MDBK / IC50 B. bovis): 7.9 | Selective Index MDBK (MDBK cells; EC50 MDBK / IC50 B. caballi): 16.6 | Selective Index MDBK (MDBK cells; EC50 MDBK / IC50 B. divergens): 17.1 | Selective Index MDBK (MDBK cells; EC50 MDBK / IC50 T. equi): 10.6 and 10.9 | Selective Index HFFs (HFFs; EC50 HFFs / IC50 B. bigemina): 11.6 | Selective Index HFFs (HFFs; EC50 HFFs / IC50 B. bovis): 7.6 | Selective Index HFFs (HFFs; EC50 HFFs / IC50 B. caballi): 16.1 | Selective Index HFFs (HFFs; EC50 HFFs / IC50 B. divergens): 16.6 | Selective Index HFFs (HFFs; EC50 HFFs / IC50 T. equi): 10.6 | EC50 (HFFs): 750 ± 15 µM | inhibition of B. microti multiplication in mice (B. microti; [2]): 68.17% | peak parasitemia level (B. microti; [2]): 19.92% | first day on which parasitemia was not detected by microscopy (B. microti; days 4-8 p.i.): 26 day p.i. | toxic signs in mice due to treatment (B. microti; mouse, in vivo): no obvious toxic signs or promoted anemia | HCT Mean ([1]; day 0): 46.575% | HGB Mean ([1]; day 0): 14.8 | RBCs Mean ([1]; day 0): 942.625 | HCT Mean ([1]; day 4): 44.4% | HGB Mean ([1]; day 4): 13.64 | RBCs Mean ([1]; day 4): 928 | HCT Mean ([1]; day 8): 38% | HGB Mean ([1]; day 8): 10 | RBCs Mean ([1]; day 8): 610 | HCT Mean ([1]; day 12): 28.925% | HGB Mean ([1]; day 12): 10.05 | RBCs Mean ([1]; day 12): 557 | HCT Mean ([1]; day 16): 36.65% | HGB Mean ([1]; day 16): 11.425 | RBCs Mean ([1]; day 16): 637.75 | HCT Mean ([1]; day 20): 39.5% | HGB Mean ([1]; day 20): 11.95 | RBCs Mean ([1]; day 20): 679.75 | HCT Mean ([1]; day 24): 40.2% | HGB Mean ([1]; day 24): 12.725 | RBCs Mean ([1]; day 24): 830 | HCT Mean ([1]; day 28): 43.2% | HGB Mean ([1]; day 28): 13.2 | RBCs Mean ([1]; day 28): 898 | HCT Mean ([1]; day 32): 45.2% | HGB Mean ([1]; day 32): 14.8 | RBCs Mean ([1]; day 32): 942.625 | HCT Mean ([1]; day 36): 47.2% | HGB Mean ([1]; day 36): 14.99 | RBCs Mean ([1]; day 36): 982.625

O=C1C(O)=C([C@H]2CC[C@H](c3ccc(Cl)cc3)CC2)C(=O)c2ccccc21 [AV, atovaquone]
IC50 (B. bigemina): 0.7 ± 0.04 µM | IC50 (B. bovis): 0.04 µM | IC50 (B. caballi): 0.1 ± 0.01 µM | IC50 (B. divergens): 0.04 µM | IC50 (T. equi): 0.09 ± 0.06 µM | EC50 (MDBK cells): > 100 µM | Selective Index MDBK (MDBK cells; EC50 MDBK / IC50 B. bigemina): ˃142.7 | Selective Index MDBK (MDBK cells; EC50 MDBK / IC50 B. bovis): ˃2564 | Selective Index MDBK (MDBK cells; EC50 MDBK / IC50 B. caballi): ˃980.4 | Selective Index MDBK (MDBK cells; EC50 MDBK / IC50 B. divergens): ˃2631 | Selective Index MDBK (MDBK cells; EC50 MDBK / IC50 T. equi): ˃1052 | Selective Index HFFs (HFFs; EC50 HFFs / IC50 B. bigemina): ˃142.7 | Selective Index HFFs (HFFs; EC50 HFFs / IC50 B. bovis): ˃2564 | Selective Index HFFs (HFFs; EC50 HFFs / IC50 B. caballi): ˃980.4 | Selective Index HFFs (HFFs; EC50 HFFs / IC50 B. divergens): ˃2631 | Selective Index HFFs (HFFs; EC50 HFFs / IC50 T. equi): ˃1052 | EC50 (HFFs): > 100 µM | peak parasitemia level (B. microti; AV at 20 mg/kg, days 4-8 p.i.): 10.99% | first day on which parasitemia was not detected by microscopy (B. microti; days 4-8 p.i.): 18 day p.i. | HCT Mean ([1]; day 0): 47.48% | HGB Mean ([1]; day 0): 14.44 | RBCs Mean ([1]; day 0): 1060.62 | HCT Mean ([1]; day 4): 45% | HGB Mean ([1]; day 4): 13.64 | RBCs Mean ([1]; day 4): 984.75 | HCT Mean ([1]; day 8): 44% | HGB Mean ([1]; day 8): 14.34 | RBCs Mean ([1]; day 8): 878 | HCT Mean ([1]; day 12): 40% | HGB Mean ([1]; day 12): 12.6 | RBCs Mean ([1]; day 12): 850 | HCT Mean ([1]; day 16): 43% | HGB Mean ([1]; day 16): 13.96 | RBCs Mean ([1]; day 16): 830.25 | HCT Mean ([1]; day 20): 45% | HGB Mean ([1]; day 20): 14.92 | RBCs Mean ([1]; day 20): 844 | HCT Mean ([1]; day 24): 46% | HGB Mean ([1]; day 24): 15.4 | RBCs Mean ([1]; day 24): 850 | HCT Mean ([1]; day 28): 48% | HGB Mean ([1]; day 28): 15.64 | RBCs Mean ([1]; day 28): 984.75 | HCT Mean ([1]; day 32): 50% | HGB Mean ([1]; day 32): 16 | RBCs Mean ([1]; day 32): 1000.62 | HCT Mean ([1]; day 36): 51% | HGB Mean ([1]; day 36): 16.44 | RBCs Mean ([1]; day 36): 1060.62

From PMC7167990, “Therapeutic Effects of Atranorin towards the Proliferation of Babesia and Theileria Parasites” (Pathogens, 2020)
